We go through eleven molecules from article PMC12564302, “Discovery of N-Hydroxypyridinedione-Based Inhibitors of HBV RNase H: Design, Synthesis, and Extended SAR Studies” (International Journal of Molecular Sciences, 2025).

Data set [1] concerns HepDES19 cells. The note with it: cited from earlier work.
In data set [2] the test system is HBV replication in HepDES19 cells. The note with it: cited from earlier work.
A short description of data set [3]: Parallel artificial membrane permeability assay. In kind it is in vitro ADME. The note with it: PAMPA, pH 7.4, PAMPA. Here is the method:
The evaluation of apparent passive permeability (Papp) at pH 7.4 was performed using a donor/acceptor cassette (Innovative Laboratory Products, Phoenix, AZ, USA and Sigma Aldrich, Burlington, MA, USA), which simulates the apical and basolateral sides of the small intestine epithelium, as previously described. An artificial membrane made of 1% w/v lecithin/dodecane was applied to the poly (vinylidene fluoride) (PVDF) membrane filter and allowed to dry. Following drying, compounds (200 µM) were diluted in buffer at pH 7.4 and added to the donor side of the cassette. The same pH buffer was added on the acceptor side of the cassette, after which it was assembled and incubated at room temperature with shaking at 250 rpm for 2 h, before reading the absorbance of 100 µL from the acceptor well on a plate reader between 230 and 700 nm. The Papp (cm/s) values for compounds were determined by normalizing to the compound absorbance at equilibrium using the peak absorbance point for each compound, buffer volume, incubation time, and membrane porosity. Two or more replicate assays were conducted on different days.
(In PAMPA a lipid-coated filter parts donor from acceptor wells.)

A short description of data set [4]: Solubility limit assay. In kind it is physicochemical. The note with it: DMEM-F12 without phenol red with 10% FBS, pH 7.4, plasma or biological fluid, kinetic from dmso stock. Here is the method: Solubility limits of compounds were tested as previously reported in DMEM-F12 without phenol red (Gibco, Grand Island, NY, USA) but with the media supplemented with 10% FBS (pH 7.4) to mimic cell culture experiments. In a 384-well optically clear plate, compounds were serially diluted in pH 7.4 buffer (upper limit 200 µM, DMSO 1%) then read at 620 nm. Solubility limits were determined by plotting compound concentration (µM) against optical density (OD) and identifying an inflexion point. The inflexion point is defined by a substantial increase in OD brought on by increasing turbidity, and the compound concentration at this point is known as the solubility limit. Each compound had at least two replicate assays performed on different days.

Data set [5] in a line: MTS cytotoxicity assay. It is filed as cell-based. The note with it: human, HepDES19 cells, pH 7.4. Here is the method: (§1) HepDES19 cells are a HepG2 cell-line derivative that has been stably transfected with an HBV genotype D genome containing a tetracycline repressible promoter. HepDES19 cells were maintained on collagen-coated plates in Dulbecco’s modified Eagle’s medium (DMEM/F12) (Cytiva Life Sciences, Marlborough, MA, USA) supplemented with 10% fetal bovine serum (FBS), streptomycin (100 µg/mL), and penicillin (100 IU/mL), and incubated at 37 °C with 5% CO2 and saturating humidity. Cells were cultured with 1 µg/mL tetracycline to inhibit the expression of the stably integrated HBV genome, and HBV replication was activated upon removal of tetracycline from the culture medium.
Cell viability was assessed using the CellTiter 96^TM Aqueous Non-Radioactive Cell Proliferation assay (MTS) (Promega, Madison, WI, USA) as described previously. HepDES19 cells were seeded in 96 well plates at 1 × 10^4 cells/well for 48 h. Cells were then incubated with serial diluted compound, with a final concentration of 1% DMSO, for 72 h. Following compound incubation, background absorbance values were subtracted, and the data were converted into percent cell viability. The cytotoxic concentration 50% (CC50) values were calculated using GraphPad Prism’s four-parameter log (inhibitor) versus response algorithm, with the bottom value set to zero. Three or more replicate assays were performed on different days.

Data set [6] relates to HBV replication in HepDES19 cells. The data set is described as follows: qPCR HBV replication inhibition assay. The note with it: Hepatitis B virus, HepDES19, 72 h, pH 7.4, HepDES19 cells, 72 h, (+) polarity DNA strand, pH 7.4; read-out: EC50. It is filed as cell-based, HBV genotype D. Here is the method: as §1
HBV replication inhibition in HepDES19 cells was assessed using a strand-preferential quantitative PCR assay as previously described. HepDES19 cells were seeded in 96 well plates at 4 × 10^4 cells/well for 48 h followed by the addition of serial diluted compound with a final concentration of 1% DMSO for 72 h, after which cells were lysed, and qPCR was performed as described in Li et al.. Effective concentration 50% (EC50) values were calculated from data for the (+) polarity DNA strand data using GraphPad Prism version 10’s four-parameter log (inhibitor) versus response algorithm, with the bottom value set to zero. Three or more replicate assays were performed on different days.
A general note: Quantitative PCR measures a nucleic acid by following its amplification.

Where [7] appears, read: Figure 1, earlier HBV RNase H inhibitors.
Where [8] appears, read: pH 7.4, 200 µM, 2 h, read-out: Papp.
The mark [9] stands for this setting: pH 7.4, read-out: Papp Interpretation.
[10] abbreviates: pH 7.4, DMEM-F12 with 10% FBS, 1% DMSO, upper limit 200 µM, read-out: Solubility Limit.
Setting [11] is: pH 7.4, read-out: Solubility Limit Interpretation.
The mark [12] stands for this setting: pH 7.4, previously published compounds.

≈ marks a conversion by molar mass, not a printed value. Like-named read-outs stand apart in the source and are kept apart here.

Consider `COc1ccc(CON=C(C)c2c(C)cc(=O)n(O)c2O)cc1` [A24], for which the CC50 in data set [1] (setting [7]) is 102 µM. Further, the half-maximal effective concentration (EC50) in data set [2] (setting [7]) is 0.29 µM.

As for `CC(=NCc1ccccc1Cl)c1c(C)cc(=O)n(O)c1O` [Compound 36, 5-(1-((2-chlorobenzyl)imino)ethyl)-1,6-dihydroxy-4-methylpyridin-2(1H)-one], the Papp at 2 h, 200 µM in data set [3] (setting [8]) is 3.04 ×10⁻⁶ cm/s; in data set [3] (setting [9]), more than 1 ×10⁻⁶ cm/s. For the same molecule, the solubility in data set [4] (setting [10]) is 167 µM (≈ 51.1 µg/mL); in data set [4] (setting [11]), more than 100 µM. The same molecule had a CC50 at 72 h in data set [5] of 52.7 ± 29.3 µM. Also, the EC50 in data set [6] came out at 2.77 ± 0.8 µM.

Turning to `CC(=NCc1cccc(Cl)c1)c1c(C)cc(=O)n(O)c1O` [Compound 37, 5-(1-((3-chlorobenzyl)imino)ethyl)-1,6-dihydroxy-4-methylpyridin-2(1H)-one], the Papp at 2 h, 200 µM was 5.41 ×10⁻⁶ cm/s in data set [3] (setting [8]) and more than 1 ×10⁻⁶ cm/s in data set [3] (setting [9]). Besides, the solubility in data set [4] (setting [10]) is more than 200 µM; in data set [4] (setting [11]), more than 100 µM. In addition, the cytotoxic concentration (CC50) at 72 h in data set [5] was 34 ± 23 µM. In addition, in data set [6], the EC50 came out at 4.73 ± 4.4 µM.

Consider `CC(=NCc1ccc(Cl)cc1)c1c(C)cc(=O)n(O)c1O` [Compound 38, 5-(1-((4-chlorobenzyl)imino)ethyl)-1,6-dihydroxy-4-methylpyridin-2(1H)-one], for which the figures for the Papp at 2 h, 200 µM in data set [3] (setting [8]) and in data set [3] (setting [9]) were 3.07 ×10⁻⁶ cm/s and more than 1 ×10⁻⁶ cm/s, respectively. For the same molecule, the figures for the solubility in data set [4] (setting [10]) and in data set [4] (setting [11]) were more than 200 µM and more than 100 µM, respectively. Also, in data set [5], the CC50 at 72 h came to 22.9 ± 7 µM. For the same molecule, the EC50 in data set [6] amounted to 18.9 ± 8.4 µM.

As for `CC(=NCc1cccc(F)c1)c1c(C)cc(=O)n(O)c1O` [Compound 39, 5-(1-((3-fluorobenzyl)imino)ethyl)-1,6-dihydroxy-4-methylpyridin-2(1H)-one], the apparent permeability (Papp) at 2 h, 200 µM was 1.89 ×10⁻⁶ cm/s in data set [3] (setting [8]) and more than 1 ×10⁻⁶ cm/s in data set [3] (setting [9]). For the same molecule, the solubility in data set [4] (setting [10]) is more than 200 µM; in data set [4] (setting [11]) it was more than 100 µM. For the same molecule, the cytotoxic concentration (CC50) at 72 h in data set [5] came out at 19.3 ± 10.5 µM. The EC50 in data set [6] was 27.6 ± 3.7 µM.

Consider `CC(=NCc1ccc(F)cc1)c1c(C)cc(=O)n(O)c1O` [Compound 40, 5-(1-((4-fluorobenzyl)imino)ethyl)-1,6-dihydroxy-4-methylpyridin-2(1H)-one], for which the apparent permeability (Papp) at 2 h, 200 µM in data set [3] (setting [8]) is 1.1 ×10⁻⁶ cm/s; in data set [3] (setting [9]) it was more than 1 ×10⁻⁶ cm/s. Besides, the values for the solubility in data set [4] (setting [10]) and in data set [4] (setting [11]) were more than 200 µM and more than 100 µM, respectively. This molecule displayed a half-maximal cytotoxic concentration (CC50) at 72 h in data set [5] of 15.4 ± 7.4 µM. In addition, in data set [6], the EC50 amounted to 16.5 ± 3.5 µM.

As to `CC(=NCc1ccc(F)c(F)c1)c1c(C)cc(=O)n(O)c1O` [Compound 41, 5-(1-((3,4-difluorobenzyl)imino)ethyl)-1,6-dihydroxy-4-methylpyridin-2(1H)-one], the Papp at 2 h, 200 µM in data set [3] (setting [8]) was 2.54 ×10⁻⁶ cm/s; in data set [3] (setting [9]) it was more than 1 ×10⁻⁶ cm/s. For the same molecule, the solubility was more than 200 µM in data set [4] (setting [10]) and more than 100 µM in data set [4] (setting [11]). The molecule further gave a cytotoxic concentration (CC50) at 72 h in data set [5] of 23.9 ± 11.7 µM. Further, in data set [6], the concentration for a half-maximal effect (EC50) was found to be 10.7 ± 0.5 µM.

With `CC(=NCc1cc(F)cc(F)c1)c1c(C)cc(=O)n(O)c1O` [Compound 42, 5-(1-((3,5-difluorobenzyl)imino)ethyl)-1,6-dihydroxy-4-methylpyridin-2(1H)-one], the apparent permeability (Papp) at 2 h, 200 µM in data set [3] (setting [8]) was 1.53 ×10⁻⁶ cm/s; in data set [3] (setting [9]), more than 1 ×10⁻⁶ cm/s. The values for the solubility in data set [4] (setting [10]) and in data set [4] (setting [11]) were more than 200 µM and more than 100 µM, respectively. Also, in data set [5], it took 82.9 ± 24.6 µM to reach half-maximal cytotoxicity (CC50 at 72 h). For the same molecule, the EC50 in data set [6] stood at 73.7 ± 26.3 µM.

As for `CC(=NCCOc1ccc(Cl)cc1)c1c(C)cc(=O)n(O)c1O` [Compound 43, 5-(1-((2-(4-chlorophenoxy)ethyl)imino)ethyl)-1,6-dihydroxy-4-methylpyridin-2(1H)-one], the values for the Papp at 2 h, 200 µM in data set [3] (setting [8]) and in data set [3] (setting [9]) were 0.86 ×10⁻⁶ cm/s and less than 1 ×10⁻⁶ cm/s, respectively. Moreover, the solubility in data set [4] (setting [10]) is more than 200 µM; in data set [4] (setting [11]), more than 100 µM. The half-maximal cytotoxic concentration (CC50) at 72 h in data set [5] was 30.1 ± 12.5 µM. The EC50 in data set [6] is 17.2 ± 6.6 µM.

Turning to `C/C(=N\OCc1ccccc1Br)c1c(C)cc(=O)n(O)c1O` [Compound 46], the half-maximal cytotoxic concentration (CC50) in data set [1] (setting [12]) is 80.8 ± 27.5 µM. In addition, the concentration for a half-maximal effect (EC50) in data set [2] (setting [12]) was 2 ± 1.6 µM.

`C/C(=N\OCc1ccccc1Cl)c1c(C)cc(=O)n(O)c1O` [Compound 49]: the EC50 in data set [2] (setting [12]) is 0.24 ± 0.09 µM.

By CC50 is commonly meant the concentration giving 50% cytotoxicity. In general, EC50 refers to the concentration giving half of the maximal effect. In general, Papp refers to a coefficient for how fast a substance crosses the barrier. Usually solubility stands for the dissolved amount per volume that the medium holds.
